Results: US4460777A, “N-Substituted-2-pyridylindoles” (Ciba-Geigy Corporation, priority 1982, dated 1984)
Blank lines part the entries; values can stand above or below the compound they belong to.

Tests used:
[1] = molecular target: T1, prostacyclin (PGI2) synthetase (Bos taurus, UniProt Q29626); assay: in-vitro effect on prostacyclin (PGI2) synthetase; format: biochemical, bovine; details: ratio 6-keto-PGF1α/PGE2 reduced to 50% of control, read-out: IC50 for inhibition of prostacyclin synthetase
T1 construct: crude PGI2 synthetase in the form of a microsomal fraction of bovine aorta; from tissue; host or cells: bovine aorta, microsomal fraction
T1 sequence (Q29626 1-500): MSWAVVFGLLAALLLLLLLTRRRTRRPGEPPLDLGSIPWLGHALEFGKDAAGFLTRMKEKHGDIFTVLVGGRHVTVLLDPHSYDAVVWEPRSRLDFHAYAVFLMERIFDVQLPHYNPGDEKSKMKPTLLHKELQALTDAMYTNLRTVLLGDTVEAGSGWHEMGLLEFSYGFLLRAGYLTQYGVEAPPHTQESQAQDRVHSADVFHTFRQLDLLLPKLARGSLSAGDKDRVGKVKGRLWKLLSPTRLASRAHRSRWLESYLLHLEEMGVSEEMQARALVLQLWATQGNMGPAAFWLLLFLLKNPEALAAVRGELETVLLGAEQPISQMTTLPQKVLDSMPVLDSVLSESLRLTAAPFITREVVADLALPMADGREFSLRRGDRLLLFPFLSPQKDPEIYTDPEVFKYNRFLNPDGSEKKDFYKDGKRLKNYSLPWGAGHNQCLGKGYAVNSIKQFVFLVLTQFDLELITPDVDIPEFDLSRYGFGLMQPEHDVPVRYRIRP
Protocol: The in-vitro effect on prostacyclin (PGI2) synthetase is measured analogous to the method of Sun et al., Prostaglandins 14, 1055 (1977);
The testing procedure is as follows:
^14 C-Arachidonic acid is incubated with an enzyme mixture consisting of solubilized and partially purified prostaglandin cyclo-oxygenase from sheep seminal vesicles and crude PGI2 synthetase in the form of a microsomal fraction of bovine aorta.
Test compound (dissolved in buffer, or if necessary, in a small amount of ethanol) is placed in the incubation medium. The reaction mixture is incubated in 100 mM Tris HCl (pH 7.5) for 30 minutes at 37° C., acidified to pH 3 and extracted into ethyl acetate. The extract is evaporated to dryness; the residue is dissolved in acetone, spotted on thin-layer plates and chromatographed in a solvent system described in Sun et al. The radioactive zones are located with a scanner; those corresponding to 6-keto-PGF1 α (a stable end product of prostacyclin biotransformation) and PGE2 are transferred to liquid scintillation vials and counted. The ratio of counts for 6-keto-PGF1 α/PGE2 is calculated for each concentration of test compound used. IC50 values for inhibition are determined graphically as the concentration of test compound at which the ratio of 6-keto-PGF1 α/PGE2 is reduced to 50% of the control value.

[2] = tested on: thrombocytopenia; assay: inhibition of thrombocytopenia
[3] = tested on: thromboxane B2; assay: plasma levels of thromboxane B2 in vivo after ionophore A23187 in rats; details: rat, oral dose as low as 0.10 mg/kg
Protocol: (§1) The inhibition of the synthesis and the reduction of plasma levels of thromboxane is determined in vivo on administration to rats in the following manner (as adapted from the procedures described by Tai et al. in Anal. Biochem. 87:343, 1978 and by Salmon in Prostaglglandins 15:383, 1978):
(§2) Rats are dosed with vehicle or test drug and injected intravenously with ionophore A23187 (0.5 mg/kg) two hours later. Blood is collected for analysis 2 minutes after the ionophore injection. A single aliquot of each plasma sample is assayed for thromboxane B2 and another aliquot for 6-keto-PGF1 α, the stable metabolites of thromboxane A2 and prostacyclin (PGI2) respectively, by radioimmunoassay.

[4] = prolongation of bleeding time in the rat; format: in vivo; details: oral, dose of about 30 mg/kg
Source text: Experimentally, prolongation of bleeding time in the rat is indicative of a beneficial antithrombotic effect.

[5] = tested on: platelet aggregation; assay: inhibition of variously induced platelet aggregation
[6] = tested on: prostacyclin (PGI2); assay: plasma levels of prostacyclin in vivo after ionophore A23187 in rats; details: rat, oral dose 0.10 mg/kg or higher
Protocol: as §1, §2

[7] = tested on: arachidonic acid induced pulmonary obstruction; assay: protection against sudden death due to arachidonic acid induced pulmonary obstruction; format: in vivo; details: mice, oral, 100 mg/kg
[8] = molecular target: T2, prostaglandin cyclooxygenase (Ovis aries, UniProt P05979); assay: in-vitro effect on prostaglandin cyclooxygenase; format: biochemical, sheep; details: 50% reduction in PGE2 synthesized, read-out: IC50 for inhibition of cyclooxygenase
T2 construct: Lyophilized sheep seminal vesicle microsomes are utilized as the prostaglandin-synthesizing enzyme preparation; from tissue; host or cells: lyophilized sheep seminal vesicle microsomes
T2 sequence (P05979 25-600): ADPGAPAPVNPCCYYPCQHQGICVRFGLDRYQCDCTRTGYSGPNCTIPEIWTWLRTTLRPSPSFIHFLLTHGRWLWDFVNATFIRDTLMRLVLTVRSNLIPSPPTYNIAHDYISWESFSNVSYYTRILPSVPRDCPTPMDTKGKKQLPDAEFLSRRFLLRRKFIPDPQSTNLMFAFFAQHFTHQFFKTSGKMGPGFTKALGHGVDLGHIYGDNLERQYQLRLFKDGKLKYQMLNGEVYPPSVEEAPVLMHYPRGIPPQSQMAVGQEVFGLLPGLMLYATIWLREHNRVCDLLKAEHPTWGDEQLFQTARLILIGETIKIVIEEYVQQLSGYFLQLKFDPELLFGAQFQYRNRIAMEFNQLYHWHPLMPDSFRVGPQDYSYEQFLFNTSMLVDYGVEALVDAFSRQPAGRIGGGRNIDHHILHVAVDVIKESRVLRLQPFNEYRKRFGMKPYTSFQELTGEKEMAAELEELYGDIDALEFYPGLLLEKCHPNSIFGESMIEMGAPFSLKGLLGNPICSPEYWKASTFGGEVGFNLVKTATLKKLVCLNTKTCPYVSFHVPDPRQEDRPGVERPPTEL
Protocol: The in-vitro effect on prostaglandin cyclooxygenase is measured by a modification of the method of Takeguchi et al. described in Biochemistry 10, 2372 (1971); the testing procedure is as follows: Lyophilized sheep seminal vesicle microsomes are utilized as the prostaglandin-synthesizing enzyme preparation. The conversion of ^14 C-arachidonic acid to PGE2 is measured. Test compounds (dissolved in buffer, or if necessary, in small amount of ethanol) are added to the incubation mixture. The prostaglandins are extracted and separated by thin-layer chromatography; the plates are scanned, the radioactive zones corresponding to PGE2 are transferred to liquid scintillation vials and counted for radioactivity. IC50 values for inhibition are determined graphically as the concentration of test compound causing a 50% reduction in the amount of PGE2 synthesized.

[9] = molecular target: T3, thromboxane synthetase (Homo sapiens, UniProt P24557); assay: in vitro inhibition of the thromboxane synthetase enzyme; format: biochemical; details: ratio TxB2/PGF2α+β reduced to 50% of control
T3 construct: crude microsomal preparation of thromboxane synthetase from lysed human platelets; from tissue; host or cells: lysed human platelets, crude microsomal preparation
T3 sequence (P24557 1-533): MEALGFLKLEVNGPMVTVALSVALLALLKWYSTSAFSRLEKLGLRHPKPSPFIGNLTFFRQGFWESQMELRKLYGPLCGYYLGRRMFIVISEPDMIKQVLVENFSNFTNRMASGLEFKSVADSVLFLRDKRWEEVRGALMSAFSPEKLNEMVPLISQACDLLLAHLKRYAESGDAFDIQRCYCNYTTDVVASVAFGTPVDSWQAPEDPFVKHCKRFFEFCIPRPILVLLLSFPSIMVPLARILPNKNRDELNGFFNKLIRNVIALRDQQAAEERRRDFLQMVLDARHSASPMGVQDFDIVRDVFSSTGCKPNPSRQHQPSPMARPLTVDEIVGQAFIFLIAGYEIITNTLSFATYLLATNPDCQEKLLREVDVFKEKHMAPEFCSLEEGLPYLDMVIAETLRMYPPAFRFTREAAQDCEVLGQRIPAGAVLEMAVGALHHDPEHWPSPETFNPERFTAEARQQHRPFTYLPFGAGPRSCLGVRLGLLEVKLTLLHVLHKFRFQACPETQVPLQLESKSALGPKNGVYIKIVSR
Protocol: Res. Comm. 74, 1432 (1977); the testi g procedure is as follows:
^14 C-Archidonic acid is incubated with an enzyme consisting of solubilized and partially purified prostaglandin cyclo-oxygenase from sheep seminal vesicles and a crude microsomal preparation of thromboxane synthetase from lysed human platelets. The test compound (dissolved in buffer, or if necessary, in a small amount of ethanol) is added to the incubation medium. At the end of the incubation period (30 minutes), Prostaglandin E2 (PGE2) is reduced to a mixture of Prostaglandin F2 α and F2 β (PGF2α+β) by addition of sodium borohydride. The radioactive products and excess substrate are extracted into ethyl acetate; the extract is evaporated to dryness; the residue is dissolved in acetone, spotted on thin-layer plates and chromatographed in the solvent system toluene:acetone:glacial acetic acid (100 volumes:100 volumes:3 volumes). The radioactive zones are located; those corresponding to Thromboxane B2 (TxB2) and PGF2 α+β are transferred to liquid scintillatiopn vials and counted. The ratio of counts for TxB2 /PGF2 α+β is calculated for each concentration of test compound and IC50 values are determined graphically as the concentration of test compound at which the ratio of TxB2 /PGF2 α+β is reduced to 50% of the control value.

SMILES: Cc1c(-c2cccnc2)n(CCCCCCCC(=O)O)c2ccccc12 [Example 1, 1-(7-carboxyheptyl)-3-methyl-2-(3-pyridyl)indole]
IC50 [1]: ~100000 nM
inhibition of thrombocytopenia [2]: inhibits
decrease of the plasma concentration of thromboxane B2 [3]: over 50%
bleeding time [4]: prolongs bleeding time
inhibition of variously induced platelet aggregation [5]: inhibits
plasma level of prostacyclin [6]: a surprising increase
protection against sudden death [7]: protects against sudden death
IC50 [8]: ~100000 nM

SMILES: Cc1c(-c2cccnc2)n(CCCCCC(=O)O)c2ccc(Cl)cc12 [Example 7, 1-(5-carboxypentyl)-5-chloro-3-methyl-2-(3-pyridyl)indole]
IC50 [9]: 1 nM

SMILES: Cc1c(-c2cccnc2)n(CCCCCC(=O)O)c2ccc(CCC(=O)O)cc12 [Example 9, 1-(5-carboxypentyl)-5-(2-carboxyethyl)-3-methyl-2-(3-pyridyl)indole]
IC50 [9]: 20 nM

Now from value to compound:

IC50 [9]: 50 nM
SMILES: Cc1c(-c2cccnc2)n(Cc2ccc(C(=O)O)cc2)c2ccccc12 [Example 11, 1-(4-carboxybenzyl)-3-methyl-2-(3-pyridyl)indole]

IC50 [9]: 10 nM
SMILES: Cc1c(-c2cccnc2)n(CCCCCC(N)=O)c2ccc(Cl)cc12 [Example 13, 1-(5-carbamoylpentyl)-5-chloro-3-methyl-2-(3-pyridyl)indole]
